Experiments:
[1] = Dose titration concordance analysis (C6 vs Cavg) in hypogonadal men treated with oral TU; type: in vivo
Description: One of the goals of this study was to determine whether the T concentration in blood samples collected into Plain tubes (yielding serum) can be used for making dose titration decisions. In previous studies, dose titration decisions were based on T concentrations in NaF-EDTA plasma.
The goal of dose-titration in men treated with oral TU is to bring the testosterone Cavg into the eugonadal range. Because titration decisions based on testosterone Cavg are not practical in real world clinical setting, single sample T concentrations can be used as surrogates of Cavg. Concordance analysis estimates how well dose titration based on two different measures (e.g., Cavg v. C6) work in guiding dose titration. […] However, to determine total concordance, effective off-diagonal titration also must be determined. Effective off-diagonal titration can be estimated for the following reasons. […] Second, the titration boundaries (425 to 970 ng/dL) fall within the eugonadal boundaries (300 to 1100 ng/dL), and the eugonadal range is wide (3.5 fold) compared to the largest dose increment (33%) or decrement (25%). This means that the dose increments/decrements employed can allow movement within the eugonadal range (e.g. increasing the dose of someone with a Cavg of 400 ng/dL will raise the Cavg to a maximum of 532 ng/dL [400×1.33]). Similarly, when titration decisions based on C6 are different from those based on Cavg, the outcome will often be a Cavg in the eugonadal range. For example, when a patient's C6 is less than 425 ng/dL (indicating a dose increase is required), but whose Cavg is 600 ng/dL (indicating no titration), the impact of titrating based on C6 is that the Cavg will increase but remain in the eugonadal range. The largest dose increase will result in a 33% increase in exposure which, in this case, will raise the Cavg to 798 ng/dL. Therefore, despite titration based on C6, this patient's Cavg is not likely to rise above the upper boundary of the eugonadal range. Thus, the titration decision based on C6 is effectively concordant with that based on Cavg, since both titration decisions will result in a patient with a Cavg in the eugonadal range. Selected cells in Table 3 indicate a patient's Cavg that would result in effective off-diagonal titration. Therefore, when comparing the effectiveness of dose-titration decisions based on C6 and Cavg, both concordance (on-diagonal agreement between C6 and Cavg) and effective off-diagonal agreement must be considered) [i.e., total concordance (percent of patients treated with oral TU who fall into given concordance boxes) is defined as the sum of on-diagonal and effective off-diagonal concordance (see area in Table 3 defined by heavy line). In the example presented, the C6 value is a serum value derived from a measured NaF-EDTA plasma value and a conversion factor that enables the conversion of NaF-EDTA plasma data to be converted to an equivalent serum data.
These reflect an on-diagonal concordance of 75% and 63% and an effective off-diagonal titration decision of 24% and 36% for Visit 2 and Visit 4b, respectively. Therefore, dose titration based on C6 can effectively adjust a patient's oral TU dose such that their Cavg is in the eugonadal range.

[2] = Method: Testosterone undecanoate is metabolized into testosterone. Its degradation in whole blood into testosterone has been studied in conditions typically used in clinical trials.
Prior to discharge from the clinical facility, the subjects will be instructed to take 396 mg TU by mouth immediately prior to their dinner meal on Day 1, then twice daily on Days 2-6 immediately prior to their breakfast and dinner meals, and on Day 7 in the morning, immediately prior to their breakfast meal.
Subjects will return to the Clinic on Day 7 in the late afternoon (before dinner) with their study medication. Upon arrival at the clinic, their study drug will be counted to determine compliance during Day 1 through Day 7 post-AM dose. They will then be administered the study drug 396 mg TU by mouth immediately prior to a dinner meal (containing 30 g fat) which will be provided. Subjects will be instructed to consume the dinner in approximately 20 minutes. Subjects will remain in the unit overnight.
On the 8th day, 5 hrs after their AM meal, blood is collected in plain, EDTA and NaF-EDTA tubes. The plain tubes sit at room temperature (RT). The EDTA and NaF-EDTA tubes are placed on ice.
Samples will be collected into multiple Plain, EDTA and NaF-EDTA tubes. The Plain tube will be incubated at RT to allow blood clotting, as recommended by Clinical and Laboratory Standards Institute (CLSI 2010). […]

SMILES: CCCCCCCCCCC(=O)O[C@H]1CC[C@H]2[C@@H]3CCC4=CC(=O)CC[C@]4(C)[C@H]3CC[C@]12C [TU, testosterone undecanoate]
- percent of patients ([1]; Visit 2, C6 425-970 ng/dL, Cavg 350-800 ng/dL): 15.2%
- percent of patients ([1]; Visit 2, C6 425-970 ng/dL, Cavg <350 ng/dL): 5.4%
- percent of patients ([1]; Visit 2, C6 425-970 ng/dL, Cavg >800 ng/dL): 2%
- percent of patients ([1]; Visit 2, C6 425-970 ng/dL, Total): 22.6%
- percent of patients ([1]; Visit 2, C6 <425 ng/dL, Cavg 350-800 ng/dL): 13.9%
- percent of patients ([1]; Visit 2, C6 <425 ng/dL, Cavg <350 ng/dL): 59.4%
- percent of patients ([1]; Visit 2, C6 <425 ng/dL, Cavg >800 ng/dL): 0%
- percent of patients ([1]; Visit 2, C6 <425 ng/dL, Total): 73.3%
- percent of patients ([1]; Visit 2, C6 >970 ng/dL, Cavg 350-800 ng/dL): 4.2%
- percent of patients ([1]; Visit 2, C6 >970 ng/dL, Cavg <350 ng/dL): 0%
- percent of patients ([1]; Visit 2, C6 >970 ng/dL, Cavg >800 ng/dL): 0.6%
- percent of patients ([1]; Visit 2, C6 >970 ng/dL, Total): 4.8%
- percent of patients ([1]; Visit 2, Total, Cavg 350-800 ng/dL): 33.3%
- percent of patients ([1]; Visit 2, Total, Cavg <350 ng/dL): 64.8%
- percent of patients ([1]; Visit 2, Total, Cavg >800 ng/dL): 2.6%
- percent of patients ([1]; Visit 4b, C6 425-970 ng/dL, Cavg 350-800 ng/dL): 25%
- percent of patients ([1]; Visit 4b, C6 425-970 ng/dL, Cavg <350 ng/dL): 10%
- percent of patients ([1]; Visit 4b, C6 425-970 ng/dL, Cavg >800 ng/dL): 0.6%
- percent of patients ([1]; Visit 4b, C6 425-970 ng/dL, Total): 35.6%
- percent of patients ([1]; Visit 4b, C6 <425 ng/dL, Cavg 350-800 ng/dL): 21.8%
- percent of patients ([1]; Visit 4b, C6 <425 ng/dL, Cavg <350 ng/dL): 37.5%
- percent of patients ([1]; Visit 4b, C6 <425 ng/dL, Cavg >800 ng/dL): 0%
- percent of patients ([1]; Visit 4b, C6 <425 ng/dL, Total): 59.3%
- percent of patients ([1]; Visit 4b, C6 >970 ng/dL, Cavg 350-800 ng/dL): 4.3%
- percent of patients ([1]; Visit 4b, C6 >970 ng/dL, Cavg <350 ng/dL): 0%
- percent of patients ([1]; Visit 4b, C6 >970 ng/dL, Cavg >800 ng/dL): 0.6%
- percent of patients ([1]; Visit 4b, C6 >970 ng/dL, Total): 4.9%
- percent of patients ([1]; Visit 4b, Total, Cavg 350-800 ng/dL): 51.1%
- percent of patients ([1]; Visit 4b, Total, Cavg <350 ng/dL): 47.5%
- percent of patients ([1]; Visit 4b, Total, Cavg >800 ng/dL): 1.2%
- testosterone exposure versus dose ([1]; men treated with oral TU): dose proportional
- degradation of TU in whole blood into testosterone [2]: degrades extensively to testosterone

From patent US20240156836A1, “METHODS OF TREATING TE[…]” (priority 2018, published 2024)
